Data from article PMC4104029, “Mechanism of Action of Compound-13: An α1-Selective Small Molecule Activator of AMPK” (Chemistry & Biology, 2014).

Legend:
[1] = system: panel of 138 protein kinases; assay: Kinase inhibition screen; assay type: biochemical; details: 10 μM
Protocol: Supplemental Figure Legends:
Figure S1, related to Figures 1-3. Subunit composition of AMPK preparations used in this study. (A) Heterotrimeric AMPK complexes (10 ng) produced in both Sf9 (Sigma and Signalchem) and E.coli (in our laboratory) were analysed by Western blotting using isoform specific antibodies. Note that both the α2/α1-HOOK and α2/α1-LOOP chimeras are no longer recognised by the anti-α2 antibody as the epitope has been replaced (see Fig S4). (B) Heterotrimeric AMPK α2/α1 chimeric complexes expressed in E.coli (2 μg) were separated by SDS-PAGE and stained with Coomassie G-250. Arrows indicate the position of the […]
Figure S2, related to Figure 1. C2 has negligible effects on a panel of 138 protein kinases.
Kinase inhibition screen was performed by the International Centre for Kinase profiling (Dundee). Assays were performed in duplicate using 10 µM C2 and are representative of two independent screens. Results are shown in rank order as mean % activity compared with controls in the absence of compound ± SD. […]
Figure S3, related to Figure 2. […] Results are expressed as mean Pi incorporated in nmol.min-1.mg-1 ± SD. […] Results are expressed as fold increase in activity relative to controls in the absence of compound ± SD.
(E) C2 and AMP displace a GST-AMPKγ2 subunit fusion from ATP-γ-Sepharose. […] The presence of eluted AMPKγ2 was analysed by SDS-PAGE and staining with colloidal Coomassie. […]

[2] = design: method as in Gómez-Galeno et al., 2010; details: 100 μM for up to 6 hr; ref Gómez-Galeno et al., 2010; cited from earlier work
whole-body lipogenesis = details: among a series of prodrugs; ref Gómez-Galeno et al., 2010; cited from earlier work

Compound | effect on upstream kinases of AMPK ([1]; LKB1, CaMKKβ, and TAK1) | effect on kinase activity ([1]; includes AMPK-related kinase family) | cellular accumulation [2] | inhibition of whole-body lipogenesis (whole-body lipogenesis)
O=P(O)(O)c1ccc(-c2cc(O)on2)o1 [Compound C2, 5-(5-hydroxyl-isoxazol-3-yl)-furan-2-phosphonic acid] | did not affect | majority were not affected | no significant cellular accumulation | –
CC(C)C(=O)OCOP(=O)(OCOC(=O)C(C)C)c1ccc(C2=NOC(=O)C2)o1 [Compound C13] | – | – | – | most potent inhibition
